Assay [1] deals with colonic lamina propria (cLP) cells. The experiment in a line: A2a blockade in antibiotic-pretreated mice given live or killed ASF519, flow cytometry of colonic lamina propria cells. The format is in vivo, mouse. Particulars: daily i.p. injection.
Assay [2] relates to fusion of autophagosomes with lysosomes. Briefly: Inhibition of autophagosome-lysosome fusion in EV-treated BMDCs, IL-10.
For assay [3], the target named is class III PI3K (Mus musculus, UniProt Q6PF93). Briefly: Inhibition of autophagosome formation in EV-treated BMDCs, IL-10.
Chain of class III PI3K (Q6PF93 whole entry): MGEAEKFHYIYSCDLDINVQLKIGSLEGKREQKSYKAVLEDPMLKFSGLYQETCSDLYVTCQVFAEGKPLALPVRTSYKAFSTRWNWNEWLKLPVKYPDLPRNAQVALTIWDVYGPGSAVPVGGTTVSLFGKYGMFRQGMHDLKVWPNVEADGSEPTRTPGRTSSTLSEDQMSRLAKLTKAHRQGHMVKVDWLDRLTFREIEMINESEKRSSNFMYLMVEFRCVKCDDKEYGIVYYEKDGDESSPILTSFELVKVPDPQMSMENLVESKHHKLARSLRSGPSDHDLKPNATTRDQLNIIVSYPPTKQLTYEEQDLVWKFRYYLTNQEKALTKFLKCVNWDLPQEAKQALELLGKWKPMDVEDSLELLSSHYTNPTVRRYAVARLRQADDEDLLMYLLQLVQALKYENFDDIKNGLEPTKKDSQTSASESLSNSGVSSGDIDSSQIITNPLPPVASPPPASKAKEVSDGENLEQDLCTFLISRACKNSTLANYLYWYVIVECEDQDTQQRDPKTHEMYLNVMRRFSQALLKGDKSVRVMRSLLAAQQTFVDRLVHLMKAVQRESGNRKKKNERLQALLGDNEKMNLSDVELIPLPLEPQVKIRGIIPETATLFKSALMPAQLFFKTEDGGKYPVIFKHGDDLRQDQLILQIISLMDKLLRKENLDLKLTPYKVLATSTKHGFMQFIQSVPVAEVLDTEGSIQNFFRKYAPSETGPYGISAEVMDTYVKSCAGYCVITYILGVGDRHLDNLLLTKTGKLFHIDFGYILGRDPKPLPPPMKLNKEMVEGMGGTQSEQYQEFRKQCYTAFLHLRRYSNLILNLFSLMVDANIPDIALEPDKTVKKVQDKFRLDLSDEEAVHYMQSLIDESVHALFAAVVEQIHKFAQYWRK
Chain of class III PI3K (Q8VD65 whole entry partner): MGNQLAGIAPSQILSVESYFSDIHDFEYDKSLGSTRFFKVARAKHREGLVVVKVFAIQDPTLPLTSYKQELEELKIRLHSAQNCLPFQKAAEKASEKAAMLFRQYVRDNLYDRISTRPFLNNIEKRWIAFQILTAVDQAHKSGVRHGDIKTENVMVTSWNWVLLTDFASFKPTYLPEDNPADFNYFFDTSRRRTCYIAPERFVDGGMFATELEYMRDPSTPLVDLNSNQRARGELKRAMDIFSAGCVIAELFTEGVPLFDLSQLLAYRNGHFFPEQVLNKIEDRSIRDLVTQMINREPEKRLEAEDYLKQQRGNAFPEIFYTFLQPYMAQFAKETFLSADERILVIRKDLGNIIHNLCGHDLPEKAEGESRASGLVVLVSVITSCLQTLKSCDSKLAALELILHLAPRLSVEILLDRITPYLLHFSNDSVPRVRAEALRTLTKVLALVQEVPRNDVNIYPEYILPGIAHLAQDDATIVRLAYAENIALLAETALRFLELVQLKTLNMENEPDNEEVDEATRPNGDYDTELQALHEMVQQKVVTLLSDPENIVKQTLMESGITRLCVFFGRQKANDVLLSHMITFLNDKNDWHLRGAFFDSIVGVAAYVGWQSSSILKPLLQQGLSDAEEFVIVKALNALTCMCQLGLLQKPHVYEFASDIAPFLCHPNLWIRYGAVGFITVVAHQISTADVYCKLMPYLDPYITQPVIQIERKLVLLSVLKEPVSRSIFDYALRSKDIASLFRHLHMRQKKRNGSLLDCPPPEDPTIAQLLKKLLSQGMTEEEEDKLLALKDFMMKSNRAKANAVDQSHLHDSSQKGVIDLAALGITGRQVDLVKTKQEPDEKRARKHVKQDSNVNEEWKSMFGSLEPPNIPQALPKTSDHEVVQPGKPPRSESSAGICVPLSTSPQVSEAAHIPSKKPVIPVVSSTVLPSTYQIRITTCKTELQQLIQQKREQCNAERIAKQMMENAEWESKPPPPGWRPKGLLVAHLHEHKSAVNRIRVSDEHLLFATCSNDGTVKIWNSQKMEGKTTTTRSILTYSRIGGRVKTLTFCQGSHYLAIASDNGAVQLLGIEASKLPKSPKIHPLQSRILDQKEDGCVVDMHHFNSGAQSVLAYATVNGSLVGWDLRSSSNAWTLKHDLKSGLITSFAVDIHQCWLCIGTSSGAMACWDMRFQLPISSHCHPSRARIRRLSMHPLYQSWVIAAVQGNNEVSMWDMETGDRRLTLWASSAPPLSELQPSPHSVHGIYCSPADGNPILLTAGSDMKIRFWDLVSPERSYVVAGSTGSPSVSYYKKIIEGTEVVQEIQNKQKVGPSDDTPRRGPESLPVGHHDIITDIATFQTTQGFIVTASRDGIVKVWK
Chain of class III PI3K (O88597 whole entry partner): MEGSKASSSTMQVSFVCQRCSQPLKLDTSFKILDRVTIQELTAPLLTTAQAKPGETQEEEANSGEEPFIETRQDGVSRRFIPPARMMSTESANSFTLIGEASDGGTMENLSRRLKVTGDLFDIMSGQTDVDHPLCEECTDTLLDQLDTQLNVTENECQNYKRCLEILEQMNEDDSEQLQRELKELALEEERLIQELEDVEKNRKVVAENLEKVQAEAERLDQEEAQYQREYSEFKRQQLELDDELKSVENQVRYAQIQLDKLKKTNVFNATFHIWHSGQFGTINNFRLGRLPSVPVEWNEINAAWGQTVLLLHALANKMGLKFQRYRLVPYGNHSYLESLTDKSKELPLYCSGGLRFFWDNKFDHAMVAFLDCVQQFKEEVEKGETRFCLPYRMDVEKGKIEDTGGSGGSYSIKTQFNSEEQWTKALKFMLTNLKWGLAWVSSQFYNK
Chain of class III PI3K (Q8CDJ3 whole entry partner): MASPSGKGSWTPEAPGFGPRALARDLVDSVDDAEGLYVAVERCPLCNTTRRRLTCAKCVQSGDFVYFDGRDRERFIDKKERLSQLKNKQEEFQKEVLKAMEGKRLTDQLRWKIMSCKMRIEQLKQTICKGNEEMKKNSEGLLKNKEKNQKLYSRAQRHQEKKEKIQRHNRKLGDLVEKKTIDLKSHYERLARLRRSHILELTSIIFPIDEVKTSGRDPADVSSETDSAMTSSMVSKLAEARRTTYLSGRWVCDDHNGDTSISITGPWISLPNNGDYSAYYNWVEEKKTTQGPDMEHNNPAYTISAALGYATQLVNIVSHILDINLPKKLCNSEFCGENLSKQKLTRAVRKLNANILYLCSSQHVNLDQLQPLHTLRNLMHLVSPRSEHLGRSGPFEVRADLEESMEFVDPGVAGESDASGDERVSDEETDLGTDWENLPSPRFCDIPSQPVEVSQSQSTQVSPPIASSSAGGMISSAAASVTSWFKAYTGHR

With `Nc1nc(NCCc2ccc(O)cc2)nc2nc(-c3ccco3)nn12` [ZM241385], in assay [1], the “effect of A2a antagonist on ASF519-induced IL-10 producing DCs” value is on record as “significantly decreased”; the “effect of A2a blockage on ASF519-decreased B cells and CD11b+ CD45+ cells” value was “restored”.
In the case of `CCN(CCO)CCCC(C)Nc1ccnc2cc(Cl)ccc12` (stereo not shown) [hydroxychloroquine], the “effect on IL-10 induction of EV-treated BMDCs” value in assay [2] is “efficiently blocked IL-10 induction”.
With `Cn1cnc(N)c2ncnc1-2` [3-methyladenine], the “effect on IL-10 induction of EV-treated BMDCs” value in assay [3] is recorded as “efficiently blocked IL-10 induction”.

The values are drawn from patent publication US20240358773A1, “Parabacteroides Goldsteinii to Treat or Prevent Inflammatory and AutoImmune Diseases” (Joslin Diabetes Center, priority 2023, published 2024).
